molecular target: T1, rHIV protease (Human immunodeficiency virus type 1 group M subtype B, UniProt P03366); assay: Inhibition of hydrolysis of a peptide substrate by rHIV protease (HPLC, Dixon analysis); assay type: biochemical, HIV; details: substrate Ac-Arg-Ala-Ser-Gln-Asn-Tyr-Pro-Val-Val-NH2, MENDT buffer pH 6.0, 37° C.; Ki from Dixon analysis
T1 construct: the reaction is initiated with purified 0.01-1 mg HIV protease
Procedure: The data in the following table is representative of inhibition produced by these compounds.
A typical assay contains […] MENDT buffer (50 mM Mes (pH 6.0; 2-(N-morpholino)ethanesulfonic acid), 1 mM EDTA, 1 mM dithiothreitol, 200 mM NaCl, 0.1% Triton X100); 2, 3, or 6 mM N-acenyl-L-arginyl-L-alanyl-L-seryl-L-glutaminyl-L-asparaginyl-L-tyrosyl-L-prolyl-L-valyl-L-valinamide (Ac-Arg-Ala-Ser-Gln-Asn-Tyr-Pro-Val-Val-[…]NH2; Km =7 mM); and micromolar and sub-micromolar concentrations of synthetic compounds. Following incubation at 37° C. for several min, the reaction is initiated with purified 0.01-1 mg HIV protease. Reaction mixtures (37° C.) are quenched after 10-20 min with an equal volume of cold 0.6N trichloroacetic acid, and, following centrifugation to remove precipitated material, peptidolysis products are analyzed by reverse phase HPLC (Beckman Ultrasphere ODS, 4.5 mm×[…]; mobile phase; 5-20% acetonitrile/H2 O--0.1% TFA (15 min), 20% acetonitrile/H2 O--0.1% TFA (5 min) at 1.5 mL/min, detection at 220 nm. The elution positions of Ac-Arg-Ala-Ser-Gln-Asn-Tyr-Pro-Val-Val-NH2 (17-18 min) and Ac-Arg-Ala-Ser-Gln-Asn-Tyr (10-11 min) are confirmed with authentic material. Initial rates of Ac-Arg-Ala-Ser-Gln-Asn-Tyr formation are determined from integration of these peaks, and typically, the inhibitory properties of the synthetic compounds are determined from slope/intercept analysis of a plot of 1/v vs. [inhibitor] (Dixon analysis). Ki values resulting from this type of primary analysis are accurate for competitive inhibitors only, and under conditions in which the Michaelis constant of the substrate used is well determined.

Going from `COC(=O)[C@@H](NC(=O)[C@@H](NC(=O)C(C)N1CCC(C(C)NC(=O)[C@H](C)N)=CC(Cc2ccccc2)C1)C(C)C)C(C)C` (stereo partly drawn) [Example 2, 2-[3-benzyl-5-(1-alanylamino-ethyl)-2,3,6,7-tetrahydro-1H-azepin-1-yl]-1-oxo-propyl-valinyl-valine methyl ester] to `COC(=O)[C@@H](NC(=O)[C@@H](NC(=O)C(C)N1CCC(C(C)NC(=O)[C@H](C)N)=CC(Cc2ccccc2)C1=O)C(C)C)C(C)C` (stereo partly drawn) [Example 1, 2-[3-benzyl-5-(1-alanylamino-ethyl)-2,3,6,7-tetrahydro-1H-2-oxo-azepin-1-yl]-1-oxo-propyl-valinyl-valine methyl ester], the Ki rises from 0.6 µM to 100 µM (170-fold). The first binds more tightly here.

Work on `COC(=O)[C@@H](NC(=O)[C@@H](NC(=O)C(C)N1CCC(C(C)NC(=O)[C@@H](N)Cc2ccccc2)=CC(Cc2ccccc2)C1)C(C)C)C(C)C` (stereo partly drawn) [Example 3, 2-[3-benzyl-5-(1-(phenylalanyl)amino-ethyl)-2,3,6,7-tetrahydro-1H-azepin-1-yl]-1-oxo-propyl-valinyl-valine methyl ester] yielded a Ki of 3.6 µM.
